Data on one compound can be found in publication PMC12386934, “Characteristics and Potential of KSL, KSL-W, and Dadapin-1 Antimicrobial Peptides for Preventing Infections of Orthopedic Prosthetic Devices: Identifying the Most Robust Candidate” (International Journal of Molecular Sciences, 2025).

≈ marks a conversion by molar mass, not a printed value. Where a SMILES comes first, the peptide text is derived from it.

What all share (assay type): cell-based
For experiment [1], the system named is E. coli cra4038 (EC). An excerpt: (§1) The experimental scheme reported in Figure 6 helped to simplify and optimize the in vitro testing of the antibacterial activity of the different AMPs. The initial transparent microtiter plate for the determination of the minimum inhibitory concentration (MIC) by optical density (OD) measurement was conveniently used as a starting point not only for the alterative determination of the MIC by luminescence but also for the minimum bactericidal concentration (MBC) and for the minimum biofilm inhibitory concentration (MBIC), as explained below. For every test peptide, at least three independent experiments were performed on each bacterial strain per test condition (100% MHB and 20% MHB). The sole exception to this rule was when MIC values were on rare occasions found to be greater than 500 µg/mL. Under these circumstances, two consecutive experiments were performed to confirm the results. In this case, the antibacterial activity was considered insignificant and the third experiment was generally considered unnecessary.
(§2) The antibacterial properties of the test AMPs were assayed under two distinct conditions of bacterial culture: (i) with bacteria cultured in undiluted Mueller–Hinton II Broth (MHB II) and (ii) with bacteria cultured in diluted MHB II as earlier described in Campoccia et al.. Briefly, a few colonies of each bacterial strain, taken from overnight cultures on Mueller–Hinton Agar plates (MHA, PO50007A, ThermoScientific, Thermo Fisher Scientific, Segrate, Italy), were resuspended in Mueller–Hinton II Broth (MHB II, 24107, Liofilchem, Roseto degli Abruzzi, Italy), either undiluted or at a 20% dilution in deionized water. The concentration of bacteria was adjusted to approximately 10^8 CFU/mL, as estimated by optical density reading at 625 nm, using a Hewlett Packard G1103A spectrophotometer (Waldbronn, Germany). The bacterial suspension was further diluted 1:100 in 100% or 20% MHB II. […]
(§3) For assessing the MBC, 10 μL of bacterial suspensions was taken from wells corresponding to MIC, 2× MIC, and 4× MIC and then plated on MHA plates. […] The MBC was determined as the lowest dilution causing absence of bacterial colonies growth on the plate.
(§4) In order to assess the extent of the interference of the culture medium composition with the antibacterial activity of the three peptides, a “Rate of Abatement” of the bactericidal properties (RoA) was calculated using the following formula (Equation (1)):RoA = MBCMHB/MBC20% MHB(1)
(§5) RoA indicates the fold increases in the MBC when tested in undiluted medium […], i.e., with maximal interference of broth polyanionic substances, with respect to diluted medium […]. […] A more versatile measure to express the loss of activity was calculated as follows. […]

Experiment [2] relates to E. faecalis cra4033 (EF 02).
Description: as §1, §2, §3, §4, §5

Experiment [3] deals with S. epidermidis cra4029 (SE 02).
Description: as §1, §2, §3, §4, §5

For experiment [4], the system named is entire panel of strains. Nature of the experiment: MBC, all strains of the panel. The settings on record: undiluted MHB II, re-tested plating 10 μL. As for the experimental part: For assessing the MBC, 10 μL of bacterial suspensions was taken from wells corresponding to MIC, 2× MIC, and 4× MIC and then plated on MHA plates. After one day of incubation at 37 °C, the agar plates were examined for bacterial growth. The MBC was determined as the lowest dilution causing absence of bacterial colonies growth on the plate.

Experiment [5] concerns P. aeruginosa cra3840 (PA 02).
Description: as §1
(§6) The antibacterial properties of the test AMPs were assayed under two distinct conditions of bacterial culture: (i) with bacteria cultured in undiluted Mueller–Hinton II Broth (MHB II) and (ii) with bacteria cultured in diluted MHB II as earlier described in Campoccia et al.. Briefly, a few colonies of each bacterial strain, taken from overnight cultures on Mueller–Hinton Agar plates (MHA, PO50007A, ThermoScientific, Thermo Fisher Scientific, Segrate, Italy), were resuspended in Mueller–Hinton II Broth (MHB II, 24107, Liofilchem, Roseto degli Abruzzi, Italy), either undiluted or at a 20% dilution in deionized water. The concentration of bacteria was adjusted to approximately 10^8 CFU/mL, as estimated by optical density reading at 625 nm, using a Hewlett Packard G1103A spectrophotometer (Waldbronn, Germany). The bacterial suspension was further diluted 1:100 in 100% or 20% MHB II.
(§7) Serial 1:2 dilutions of all the test peptides were prepared in sterile deionized water starting from a stock solution of 1 mg/mL. Microtiter plates (96-Well CytoOne® Plate, CC7672-7596, Starlab S.r.l., Milano, Italy) were prepared by adding a volume of 100 µL of inoculum to 100 µL of treatment. Each AMP dilution was assayed in triplicate; each microplate included triplicate wells for the blank (100 µL of sterile distilled water and 100 µL of sterile MHB II), and 3 to 6 wells for reference control of 100% growth (100 µL of sterile deionized water and 100 µL of MHB II inoculated with the bacterium). Positive controls were performed in triplicate wells with 100 µL of a 10 mg/mL gentamicin solution (G1272, Sigma Aldrich, Milan, Italy) and with 100 µL of a solution containing 10,000 units/mL of penicillin and 10,000 µg/mL of streptomycin (penicillin–streptomycin, 15140-122, Life Technologies, Monza, Italy).
(§8) The wells of the microplate, initially used for the determination of the MIC, were rinsed twice with 220 µL of phosphate-buffered solution (PBS) to remove loosely attached and planktonic bacteria. A total of 100 µL of fresh PBS and 100 µL of Bac-Titer Glo solution (G8231, Promega Italia S.r.l., Milan, Italy) were added to each well. After a 10 min incubation, a volume of 100 µL was transferred to a new microplate for luminescence determination as described above. As a general rule, the MBIC value was identified as the concentration at which a reduction of at least a log in the metabolic activity was observed.

Experiment [6] concerns E. faecalis cra4024 (EF 01).
Description: as §1, §6, §7, §8

Experiment [7] has as its system E. coli cra4038 (EC).
Description: as §1, §6, §7, §8
The source holds these as a separate data set.

Experiment [8] relates to S. epidermidis cra4034 (SE 01). The settings on record: cra4034 (SE 01, 24 h).
Description: as §1, §6, §7, §8

For experiment [9], the system named is S. aureus ATCC 25923 (SA 00). The settings on record: ATCC 25923, 24 h.
Description: as §1, §6, §7, §8

The subject of experiment [10] is S. aureus cra2198 (SA 02). The settings on record: cra2198 (SA 02, 24 h).
Description: as §1, §6, §7, §8

In experiment [11] the test system is S. epidermidis cra4029 (SE 02). The settings on record: cra4029 (SE 02, 24 h).
Description: as §1, §6, §7, §8

Experiment [12] relates to S. aureus cra4030 (SA 01). The settings on record: cra4030 (SA 01, 24 h).
Description: as §1, §6, §7, §8

Experiment [13] has as its system E. faecalis cra4024 (EF 01).
Description: as §1, §6, §7
(§9) After a 1-day incubation at 37 °C, the MIC was determined by two distinct methods: (1) optical density measurement and (2) bioluminescence reading. In the first case, the optical density of the microtiter plates was read directly at a wavelength of 600 nm and the MIC was estimated from the curves obtained by plotting the OD measurements. For the bioluminescence reading, after gentle resuspension, 100 µL of each treated culture was transferred to a new 96-well non-treated plate (236105/237105, Life Technologies, Monza, Italy) and the metabolic activity was determined by the kit Bac-Titer Glo Microbial Cell Viability Assay (G8231, Promega Italia S.r.l, Milan, Italy). Optical density and bioluminescence were read by a Modulus II multifunction plate reader (Turner BioSystems, Sunnyvale, CA, USA) or, alternatively, by an Infinite M Plex (Tecan Group Ltd., Männedorf, Switzerland). As earlier described in [24], in the case of luminescence, the MIC was identified from the curves of growth inhibition as the first concentration leading to a 1-log reduction in bacterial growth (i.e., 90% growth inhibition). […]
The source holds these as a separate data set.

Experiment [14] relates to E. faecalis cra4033 (EF 02).
Description: as §1, §6, §7, §9
The source holds these as a separate data set.

Experiment [15] relates to S. aureus cra2198 (SA 02).
Description: as §1, §6, §7, §9

For experiment [16], the system named is S. epidermidis cra4029 (SE 02).
Description: as §1, §6, §7, §9
The source holds these as a separate data set.

For orientation: MBC means the smallest concentration meeting the test's criterion for killing. High values mean less potent killing, low ones more potent killing. The MIC is the lowest concentration that inhibits growth of the organism. For `CC(C)C[C@H](NC(=O)CN)C(=O)N[C@@H](CC(C)C)C(=O)N[C@@H](CCCNC(=N)N)C(=O)N[C@@H](C)C(=O)N[C@@H](CO)C(=O)N[C@@H](CO)C(=O)N[C@@H](CCCCN)C(=O)N[C@@H](Cc1c[nH]c2ccccc12)C(=O)NCC(=O)N[C@@H](CCCNC(=N)N)C(=O)N[C@@H](CCCCN)C(=O)N[C@@H](Cc1ccc(O)cc1)C(=O)N[C@@H](Cc1ccc(O)cc1)C(=O)N[C@H](C(=O)N[C@@H](CC(=O)O)C(=O)N[C@@H](CC(C)C)C(=O)N[C@@H](C)C(=O)NCC(=O)N[C@@H](CS)C(=O)N[C@@H](C)C(=O)N[C@@H](CCCCN)C(=O)N[C@@H](C)C(=O)O)C(C)C` [Dadapin-1] (H-GLLRASSKWGRKYYVDLAGCAKA-OH), the MBC in experiment [1] is 31.25 to 62.5 µg/mL; in experiment [2] it was more than 500 µg/mL; in experiment [3], 15.63 µg/mL (≈ 6.22 µM); in experiment [4], “exceeded 500 μg/mL”. Besides, the “LR, Log10 reduction in bacterial metabolism for a given MBIC” value is 3 LR in experiment [5] (cra3840 (PA 02)), 3 LR in experiment [6] (cra4024 (EF 01)) and 2 LR in experiment [7] (cra4038 (EC)). Also, the MBIC in [5] (cra3840 (PA 02, 24 h)) is more than 500 µg/mL; in experiment [6] (cra4024 (EF 01, 24 h)), more than 500 µg/mL; in [7] (cra4038 (EC, 24 h)), 15.63–31.25 (31.25) 2LR: 31.25 μg/mL; in [8], 3.91 to 7.81 µg/mL; in experiment [9], 250 to 500 µg/mL; in experiment [10] it was 500 µg/mL. The MBIC is more than 500 µg/mL in experiment [11] and 7.81 to 15.63 µg/mL in experiment [12]. For the same compound, the MIC in experiment [13] was more than 500 µg/mL; in experiment [14], more than 500 µg/mL; in experiment [15] it was 15.63 µg/mL (≈ 6.22 µM); in [16] it was more than 500 µg/mL.
